Experimental data published in patent publication US20230121797A1, “A COMBINATION OF FLAVONOIDS AND SPHINGOSINE 1 PHOSPHATE LYASE INHIBITORS FOR THE TREATMENT OF LUNG INFLAMMATION” (AC BIOSCIENCE SA, priority 2020, published 2023).
Like-named read-outs stand apart in the source and are kept apart here.

Key:
circulating lymphocytes [1] = settings: human subjects, cited from earlier work
circulating lymphocytes [2] = settings: mice, cited from earlier work
Human neutrophils [3] = experiment: cytochrome c reduction rate (superoxide anion production) by activated neutrophils; format: cell-based
Method: Human neutrophils (2×10^6/mL) were incubated in HBSS with TNF-α at 37° C. for 25 minutes. Cells were stimulated with FMLP or PMA in the presence of cytochrome c (1.2 mg/mL final), and the optical density of the supernatants was determined by spectrophotometry (550 nm). For both PMA or FLMP as PMN activators, the IC50 for DHQ inhibition is around 8 μM.
When activated by opsonized bacteria, zymozan, FMLP (Formyl-Methionyl-Leucyl-Phenylalanine) or PMA (phorbolmyristate acetate), neutrophils undergo an oxidative burst resulting in the production of superoxide anion and subsequent hydrogen peroxide. The oxidative burst is mainly mediated by the NADPH oxidase activation, enzyme responsible of the superoxide anion production. […] This effect may come from either a direct anion superoxide scavenging or from the inhibition of NADPH oxidase activation.

Human neutrophils [4] = experiment: as above; format: cell-based; settings: Resting neutrophils
neutrophils = experiment: activation of neutrophils stimulated by LPS or PMA; format: cell-based
Text: Flavonoids are the largest group of naturally occurring polyphenolic compounds which have shown diverse biological activities depending of their chemical structure including anti-viral activities against a variety of viruses and potent immune-modulating and inflammatory activities. Among flavonoids, Quercetin, and its bioavailable derivatives such as isoquercetin, offer good perspectives to develop new therapeutics to treat cancer, viral infection and pathogenic inflammation (reviewed in Li et al, 2016). Flavonoids have potent anti-inflammatory activities.

Human neutrophils [5] = experiment: ROS production by activated neutrophils, luminol chemiluminescence; format: cell-based; settings: for inhibition of the ROS production: DHQ 1p M in the assay medium
Method: ROS production is measured using a chemiluminescence standard procedure: briefly, One hundred microliters of human neutrophils (4×10^6/mL) were primed with TNF-α at 37° C. for 25 minutes. 100 μL luminol (1 μM final concentration) and HRP (62.5 U/mL final concentration) in HBSS were added, and 150-μL aliquots were transferred to a prewarmed 96-well luminometer plate. Light emission was recorded by a Berthold MicroLumat Plus luminometer (Berthold Technologies, Hartfordshire, United Kingdom) (data output is in relative light units per second).
In order to further investigate the effect of DHQ on the oxidative burst of neutrophils, the measurement of the ROS production by chemoluminescence has been used which detect both surperoxide anion and hydrogen peroxide. […] This inhibitory effect can be considered as very efficient regarding the fact that the addition of 1p M in the assay medium results in around 80% inhibition of the ROS production in both experiments. The inhibition is not due to a ROS scavenging (as measured by cyt. C reduction) but due to the inhibition of NADPH oxidase.

PMN = experiment: oxygen consumption of triggered PMN; format: cell-based; settings: triggered by PMA, FMLP and opsonized zymosan; data not shown
[6] = system: LPS-stimulated whole blood; settings: cited from earlier work

C/C(=N\O)c1nc([C@@H](O)[C@H](O)[C@H](O)CO)c[nH]1 [Compound 2]
tolerability (circulating lymphocytes [1]; all dose groups): generally well tolerated
decrease in peripheral lymphocytes (circulating lymphocytes [1]; single ascending dose, highest administered dose of 180 mg): ~50%
lymphopenia (circulating lymphocytes [2]; single oral doses lower than 30-100 mg/kg): minimal to non-statistically significant effect
lymphopenia (circulating lymphocytes [2]; single oral doses of 30-100 mg/kg): 40-60%
depletion of circulating lymphocytes (circulating lymphocytes [2]; single oral doses, 18 h after dosing): up to 60%

O=C1c2c(O)cc(O)cc2O[C@H](c2ccc(O)c(O)c2)[C@H]1O [DHQ, Dihydroquercetin]
cytochrome c reduction (anion superoxide production) (Human neutrophils [3]; +FMLP, DHQ 1 μM): 0.144 dDO/min
cytochrome c reduction (anion superoxide production) (Human neutrophils [3]; +FMLP, DHQ 10 μM): 0.105 dDO/min
cytochrome c reduction (anion superoxide production) (Human neutrophils [3]; +FMLP, DHQ 100 μM): 0.040 dDO/min
cytochrome c reduction (anion superoxide production) (Human neutrophils [3]; +PMA, DHQ 1 μM): 0.110 dDO/min
cytochrome c reduction (anion superoxide production) (Human neutrophils [3]; +PMA, DHQ 10 μM): 0.070 dDO/min
cytochrome c reduction (anion superoxide production) (Human neutrophils [3]; +PMA, DHQ 100 μM): 0.021 dDO/min
IC50 (Human neutrophils [3]; Homo sapiens, Neutrophil, PMA as PMN activator, neutrophils incubated with TNF-α, read-out: IC50 for DHQ inhibition of cytochrome c reduction rate (superoxide anion production)): ~8 µM
cytochrome c reduction (anion superoxide production) (Human neutrophils [4]; DHQ 1 μM): 0.000 dDO/min
cytochrome c reduction (anion superoxide production) (Human neutrophils [4]; DHQ 10 μM): 0.036 dDO/min
cytochrome c reduction (anion superoxide production) (Human neutrophils [4]; DHQ 100 μM): 0.086 dDO/min
effect on the activation of neutrophils (neutrophils): strong inhibitory effect
T. half (rise) (Human neutrophils [5]; FMLP 10−6 Ml, DHQ 1, 10 or 100 μM, concentration of samples 2-4 not given): 1.55
inhibition of the ROS production (Human neutrophils [5]; neutrophils activated by FMLP): around 80%
inhibition of the ROS production (Human neutrophils [5]; neutrophils activated by PMA): around 80%
oxygen consumption of PMN (PMN): strongly inhibits

O=c1c(O)c(-c2ccc(O)c(O)c2)oc2cc(O)cc(O)c12 [quercetin]
effect on the activation of neutrophils (neutrophils): strong inhibitory effect
production of the major inflammatory cytokines TNFα, IL-6, IL-8 and IL-10 [6]: decreases the production
